Results published in ChEMBL document CHEMBL3853314, “G-Protein-Coupled Receptor Kinase 2 (GRK2) Inhibitors: Current Trends and Future Perspectives” (J Med Chem, 2016).
pIC50, pKd: −log10 of the molar value. Peptide text beside a SMILES is read from it.

What was measured:
[1] = target: Protein kinase C beta type (Homo sapiens, UniProt P05771); experiment: Binding affinity to PKCbeta2 (unknown origin) using Lys-Arg-Thr-Leu-Arg-Arg as substrate after 8 mins in presence of [gamma-32P]ATP by liquid scintillation spectrometry
[2] = target: Protein kinase C alpha type (Homo sapiens, UniProt P17252); experiment: Binding affinity to PKCalpha (unknown origin) using Lys-Arg-Thr-Leu-Arg-Arg as substrate after 8 mins in presence of [gamma-32P]ATP by liquid scintillation spectrometry
[3] = target: T1, cGMP-dependent protein kinase 1 (Homo sapiens, UniProt Q13976); experiment: Binding affinity to human recombinant N-terminal GST-tagged PKGalpha expressed in Baculovirus infected insect Sf9 cells using RKRSRAE as substrate in presence of [gamma-32P]ATP
T1 sequence (Q13976 whole entry): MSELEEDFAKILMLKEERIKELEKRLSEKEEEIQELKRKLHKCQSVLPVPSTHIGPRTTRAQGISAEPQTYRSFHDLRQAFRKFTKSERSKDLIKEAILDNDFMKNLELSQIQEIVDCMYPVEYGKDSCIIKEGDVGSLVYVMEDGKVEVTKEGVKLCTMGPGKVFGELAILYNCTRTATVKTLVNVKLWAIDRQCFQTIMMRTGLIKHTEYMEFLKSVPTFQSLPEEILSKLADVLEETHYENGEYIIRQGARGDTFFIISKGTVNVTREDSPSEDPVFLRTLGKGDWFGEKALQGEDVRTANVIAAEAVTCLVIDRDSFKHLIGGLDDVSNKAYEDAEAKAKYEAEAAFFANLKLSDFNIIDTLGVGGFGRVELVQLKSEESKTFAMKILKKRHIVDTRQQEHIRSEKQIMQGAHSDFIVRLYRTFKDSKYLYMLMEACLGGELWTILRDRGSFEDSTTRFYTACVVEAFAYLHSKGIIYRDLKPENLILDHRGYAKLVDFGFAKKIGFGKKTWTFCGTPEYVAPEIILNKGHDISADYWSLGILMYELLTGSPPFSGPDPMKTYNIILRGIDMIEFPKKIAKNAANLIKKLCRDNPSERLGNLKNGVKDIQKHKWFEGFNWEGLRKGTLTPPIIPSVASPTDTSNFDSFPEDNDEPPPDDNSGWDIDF

Rhodopsin kinase GRK1 = target: T2, Rhodopsin kinase GRK1 (Bos taurus, UniProt P28327); experiment: Inhibition of bovine C-terminal truncated GRK1 (535 residues) assessed as decrease in phosphorylation of urea-washed bovine rod outer segments preincubated for 30 mins followed by ATP addition and light exposure measured after 5 to 10 mins by SDS-PAGE analysis
T2 sequence (P28327 whole entry): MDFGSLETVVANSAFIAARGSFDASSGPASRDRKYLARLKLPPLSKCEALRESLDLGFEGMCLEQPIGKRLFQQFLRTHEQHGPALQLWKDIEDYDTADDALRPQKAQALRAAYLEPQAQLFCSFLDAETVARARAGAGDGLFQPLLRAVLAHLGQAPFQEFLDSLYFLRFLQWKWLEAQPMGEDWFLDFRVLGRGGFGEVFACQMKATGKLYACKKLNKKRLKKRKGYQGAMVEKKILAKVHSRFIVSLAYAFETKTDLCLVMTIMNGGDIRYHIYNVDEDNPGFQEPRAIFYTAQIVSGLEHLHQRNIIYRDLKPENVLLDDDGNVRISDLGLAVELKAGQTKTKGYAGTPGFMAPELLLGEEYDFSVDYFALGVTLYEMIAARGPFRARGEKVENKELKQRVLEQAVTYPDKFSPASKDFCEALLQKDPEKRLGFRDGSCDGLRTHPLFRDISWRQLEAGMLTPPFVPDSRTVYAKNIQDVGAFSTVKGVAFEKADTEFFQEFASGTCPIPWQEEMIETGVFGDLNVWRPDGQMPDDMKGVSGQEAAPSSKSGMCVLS

[4] = target: T3, Beta-adrenergic receptor kinase 1 (Bos taurus, UniProt P21146); experiment: Inhibition of bovine cerebral cortex GRK2 assessed as decrease in phosphorylation of beta-adrenoceptor in presence of [gamma-32P]-ATP by SDS-PAGE analysis
T3 sequence (P21146 whole entry): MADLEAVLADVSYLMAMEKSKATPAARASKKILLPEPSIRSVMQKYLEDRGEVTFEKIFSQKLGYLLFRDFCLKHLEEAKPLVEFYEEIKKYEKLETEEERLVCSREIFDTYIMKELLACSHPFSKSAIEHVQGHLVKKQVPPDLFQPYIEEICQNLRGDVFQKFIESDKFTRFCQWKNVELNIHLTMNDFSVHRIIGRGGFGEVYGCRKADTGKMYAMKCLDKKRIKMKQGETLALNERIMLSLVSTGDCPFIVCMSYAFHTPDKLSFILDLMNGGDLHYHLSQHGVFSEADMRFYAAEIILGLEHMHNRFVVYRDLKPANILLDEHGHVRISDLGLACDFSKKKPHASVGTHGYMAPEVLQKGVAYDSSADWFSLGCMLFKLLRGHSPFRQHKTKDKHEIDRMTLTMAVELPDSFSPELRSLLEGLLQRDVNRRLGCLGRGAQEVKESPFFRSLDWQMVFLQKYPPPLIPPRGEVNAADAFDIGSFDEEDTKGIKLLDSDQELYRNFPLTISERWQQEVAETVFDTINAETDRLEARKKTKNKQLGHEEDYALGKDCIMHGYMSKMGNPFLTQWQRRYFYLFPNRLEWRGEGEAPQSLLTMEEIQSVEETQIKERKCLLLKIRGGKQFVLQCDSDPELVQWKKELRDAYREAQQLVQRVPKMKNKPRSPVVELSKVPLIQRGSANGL

Chain of Protein kinase C beta type (P05771 whole entry): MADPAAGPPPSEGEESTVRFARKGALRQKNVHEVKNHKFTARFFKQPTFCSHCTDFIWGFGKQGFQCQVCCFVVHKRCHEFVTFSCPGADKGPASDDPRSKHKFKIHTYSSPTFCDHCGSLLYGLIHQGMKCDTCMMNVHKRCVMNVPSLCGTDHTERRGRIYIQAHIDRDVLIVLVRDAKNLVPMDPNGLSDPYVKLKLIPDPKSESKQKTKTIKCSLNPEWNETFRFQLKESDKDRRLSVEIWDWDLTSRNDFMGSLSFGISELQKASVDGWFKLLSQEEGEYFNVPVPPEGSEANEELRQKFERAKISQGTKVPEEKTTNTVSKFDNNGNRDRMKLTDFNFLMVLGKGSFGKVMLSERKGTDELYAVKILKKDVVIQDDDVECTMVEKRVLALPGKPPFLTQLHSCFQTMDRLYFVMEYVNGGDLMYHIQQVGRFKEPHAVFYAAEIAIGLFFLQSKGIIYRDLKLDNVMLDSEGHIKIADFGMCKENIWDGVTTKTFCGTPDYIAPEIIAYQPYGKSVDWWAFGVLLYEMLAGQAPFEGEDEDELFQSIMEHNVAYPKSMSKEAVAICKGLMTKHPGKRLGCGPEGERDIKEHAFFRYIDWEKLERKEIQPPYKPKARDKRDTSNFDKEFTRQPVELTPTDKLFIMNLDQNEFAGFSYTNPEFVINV

| pKd [1] | pKd [2] | pKd [3] | pIC50 (Rhodopsin kinase GRK1) | pIC50 [4] | Structure (SMILES) |
| --- | --- | --- | --- | --- | --- |
| 8.74 | 8.19 | 8.80 | 5.39 | – | O=C(N[C@@H]1CNCCC[C@H]1OC(=O)c1cc(O)c(C(=O)c2c(O)cccc2C(=O)O)c(O)c1)c1ccc(O)cc1 [BALANOL] |
| – | – | – | – | 2.80 | CC(C)C[C@H](NC(=O)[C@H](CCCNC(=N)N)NC(=O)[C@H](CCC(=O)O)NC(=O)[C@H](Cc1ccccc1)NC(=O)[C@H](CCCCN)NC(=O)[C@H](C)N)C(=O)N[C@@H](CCC(N)=O)C(=O)N[C@H](C(=O)N[C@H](C(=O)N[C@H](C(=O)N[C@@H](CC(N)=O)C(=O)O)[C@@H](C)O)C(C)C)[C@@H](C)O (H-AKFERLQTVTN-OH) |
